This assay concerns Plasmodium berghei. The experiment in a line: Luciferase/luciferin-expressing antifolate-resistant parasites were used to infect a culture of HepG2 cells that were pre-incubated with compounds. Infected hepatocytes emit light due to the luciferase reaction. Assay results are presented as the percent inhibition of light emission compared to control. […]. It counts as functional. As to conditions: sporozoite; for IC90: read-out: LUCIFERASE INFECTION ASSAY - IC90.

[1] abbreviates: read-out: LUCIFERASE INFECTION ASSAY - IC50.

With `Cn1ccc(NC(=O)c2cccc(S(=O)(=O)N(Cc3ccccc3)c3ccccc3Cl)c2)n1`, the IC90 is over 10 µM. The IC50 (PBLUC_HILL_SLOPE 2.72, PBLUC_R_SQUARED 0.559, read-out: LUCIFERASE INFECTION ASSAY - IC50) is 4.88 µM.
Turning to `COc1ccc(C(CNc2nc(-c3cccnc3)nc3ccccc23)c2c[nH]c3ccccc23)cc1` (centres undefined), the 90% effect concentration (IC90) is over 10 µM. The IC50 (PBLUC_HILL_SLOPE 8.92, PBLUC_R_SQUARED 0.072, read-out: LUCIFERASE INFECTION ASSAY - IC50) is over 10 µM.
`c1ccc(OCCCn2c(CN3CCCCC3)nc3ccccc32)cc1`: the IC90 was over 9.44 µM. Under “PBLUC_HILL_SLOPE 1.54, PBLUC_R_SQUARED 0.0855, read-out: LUCIFERASE INFECTION ASSAY - IC50”, the half-maximal inhibitory concentration (IC50) was over 9.44 µM.
Take `CC(=O)c1ccc(C#CCOC(=O)c2cccs2)s1`: the concentration for an effect of 90% (IC90) was over 11.4 µM. Further, the IC50 (PBLUC_HILL_SLOPE 2.26, PBLUC_R_SQUARED 0.405, read-out: LUCIFERASE INFECTION ASSAY - IC50) was 5.72 µM.
Turning to `Cc1ccccc1C(=O)N1CCC(C(=O)Oc2ccc(Cl)c3ccccc23)CC1`, the IC90 is over 10 µM. Moreover, the IC50 under setting [1] was over 10 µM.
In the case of `O=C1NC(c2ccccc2)=C(c2nc3ccccc3s2)C(c2ccc(O)cc2)N1` (centres undefined), the IC90 is over 10 µM. Moreover, the IC50 (FFLUC_HILL_SLOPE 17.5, FFLUC_R_SQUARED 0.699, PBLUC_HILL_SLOPE 3.26, 2.75, PBLUC_R_SQUARED 0.346, 0.719, read-out: LUCIFERASE INFECTION ASSAY - IC50) turned out to be 5.94 µM.
Take `CCCn1c(NC(=O)c2cccnc2OCC)nc2ccccc21`: the IC90 was over 10 µM. For the same molecule, under “PBLUC_HILL_SLOPE 4.52, PBLUC_R_SQUARED 0.28, read-out: LUCIFERASE INFECTION ASSAY - IC50”, the IC50 came out at 7.59 µM.
Regarding `Cc1ccc(CNc2nc(NCc3cccs3)nc3ccsc23)c(C)c1`, the concentration for an effect of 90% (IC90) came to 1.63 µM. Moreover, the half-maximal inhibitory concentration (IC50) (PBLUC_HILL_SLOPE 356, PBLUC_R_SQUARED 0.443, read-out: LUCIFERASE INFECTION ASSAY - IC50) is 1.62 µM.
For `COc1ccc(Nc2cc3[nH]c(-c4cccc(C(F)(F)F)c4)cc3cn2)c(C)c1`, the IC90 is over 10 µM. The half-inhibitory concentration (IC50) (HEPG2TOX_HILL_SLOPE 8.02, HEPG2TOX_R_SQUARED 0.0629, PBLUC_HILL_SLOPE 11.9, PBLUC_R_SQUARED 0.386, read-out: LUCIFERASE INFECTION ASSAY - IC50) amounted to 8.34 µM.
As to `CC(C)n1ncc2cc(C(=O)Nc3nc4c(s3)CCCC4)cnc21`, the IC90 came out at 0.68 µM. For the same molecule, the half-inhibitory concentration (IC50) (FFLUC_HILL_SLOPE 1.2, FFLUC_R_SQUARED 0.643, HEPG2TOX_HILL_SLOPE 0.617, HEPG2TOX_R_SQUARED 0.917, PBLUC_HILL_SLOPE 0.702, PBLUC_R_SQUARED 0.926, read-out: LUCIFERASE INFECTION ASSAY - IC50) amounted to 0.0298 µM.
For the molecule `Cc1sc(NC(=O)c2ccc(Cn3cncn3)cc2)nc1-c1ccc(Br)cc1`, the IC90 was over 10 µM. For the same molecule, the IC50 (HEPG2TOX_HILL_SLOPE 2.39, HEPG2TOX_R_SQUARED 0.794, PBLUC_HILL_SLOPE 2.3, PBLUC_R_SQUARED 0.342, read-out: LUCIFERASE INFECTION ASSAY - IC50) was over 10 µM.
In the case of `COc1ccc(-c2cc3c(n(C)c2=O)CCN(C(=O)C(C)n2nc(C)cc2C)C3)c2ccc(C)nc12` (centres undefined), the IC90 was over 6.8 µM. In addition, the half-maximal inhibitory concentration (IC50) under setting [1] was over 6.8 µM.
On to `CC(Sc1ncnc2sc(-c3ccccc3)cc12)C(=O)N1CCNC1=O` (centres undefined), for which the IC90 was over 10 µM. Under “PBLUC_HILL_SLOPE 3.73, PBLUC_R_SQUARED 0.46, read-out: LUCIFERASE INFECTION ASSAY - IC50”, the 50% inhibitory concentration (IC50) amounted to 5.98 µM.
In the case of `CCCCCn1c(SCC(=O)Nc2ccc(C(C)C)cc2)n[nH]c1=O`, the IC90 was found to be 3.43 µM. In addition, the concentration for half-maximal inhibition (IC50) (HEPG2TOX_HILL_SLOPE 1.82, HEPG2TOX_R_SQUARED 0.814, PBLUC_HILL_SLOPE 12.7, PBLUC_R_SQUARED 0.412, read-out: LUCIFERASE INFECTION ASSAY - IC50) was 2.89 µM.
With `Cc1nnsc1C(=O)Nc1nc(C(F)(F)F)c(-c2ccccc2)s1`, the IC90 was over 8.91 µM. Also, the IC50 (HEPG2TOX_HILL_SLOPE 1.46, HEPG2TOX_R_SQUARED 0.922, PBLUC_HILL_SLOPE 11.5, PBLUC_R_SQUARED 0.414, read-out: LUCIFERASE INFECTION ASSAY - IC50) was determined as 8.03 µM.
As for `N#Cc1ccc(CN2CCN(Cc3nnc(C(=O)Nc4ccc(Cl)cc4)s3)CC2)cc1`, the concentration for an effect of 90% (IC90) was over 10 µM. Moreover, the IC50 under setting [1] was over 10 µM.
Regarding `CSc1ccccc1NC(=O)CN(C)c1nc(CSc2ccccc2)nc2sc3c(c12)CCC3`, the IC90 is over 10 µM. Besides, the half-inhibitory concentration (IC50) under setting [1] is over 10 µM.
`CCCN1C(=O)c2[nH]nc(-c3ccccc3O)c2C1c1ccc(Cl)cc1` (centres undefined): the IC90 is over 8.97 µM. The half-inhibitory concentration (IC50) (FFLUC_HILL_SLOPE 13.6, FFLUC_R_SQUARED 0.713, HEPG2TOX_HILL_SLOPE 5.14, HEPG2TOX_R_SQUARED 0.579, read-out: LUCIFERASE INFECTION ASSAY - IC50) is over 8.97 µM.
In the case of `Cc1csc(C(C#N)C(=O)COC(=O)c2ccccc2SCC(=O)N(C)C)n1` (centres undefined), the concentration for an effect of 90% (IC90) was over 10 µM. For the same molecule, the 50% inhibitory concentration (IC50) under setting [1] was over 10 µM.
For `CCCCCCN(C(=O)CC(NC(=O)c1ccccc1)c1ccccc1)c1nc2ccccc2s1` (centres undefined), the IC90 is 9.24 µM. The half-inhibitory concentration (IC50) (FFLUC_HILL_SLOPE 11.5, FFLUC_R_SQUARED 0.371, PBLUC_HILL_SLOPE 30.2, PBLUC_R_SQUARED 0.437, read-out: LUCIFERASE INFECTION ASSAY - IC50) is 8.6 µM.
As to `N#Cc1cc(Cl)ccc1N1C(=O)C=CC1=O`, the IC90 was over 14.2 µM. The half-inhibitory concentration (IC50) (FFLUC_HILL_SLOPE 1.82, FFLUC_R_SQUARED 0.838, PBLUC_HILL_SLOPE 13, PBLUC_R_SQUARED 0.372, read-out: LUCIFERASE INFECTION ASSAY - IC50) came out at 13.6 µM.
In the case of `CC(C(=O)Nc1cccc(S(=O)(=O)N2CCOCC2)c1)N(C)Cc1cccc(Cl)c1Cl` (centres undefined), the IC90 was over 10 µM. Also, the IC50 under setting [1] is over 10 µM.
Turning to `CCN(CC)Cc1nc(N2CCN(Cc3c(C)nc4ccc(C)cn34)CC2)c2c(C)c(C)sc2n1`, the 90% effect concentration (IC90) was over 10 µM. Further, the 50% inhibitory concentration (IC50) (PBLUC_HILL_SLOPE 1.28, PBLUC_R_SQUARED 0.354, read-out: LUCIFERASE INFECTION ASSAY - IC50) amounted to 5.6 µM.
In the case of `CC(C)NC(=O)c1c(NC(=O)c2ccc(Cl)cc2Cl)nc2ccccn12`, the 90% effect concentration (IC90) worked out at 3.78 µM. Also, for the setting “FFLUC_HILL_SLOPE 0.259, FFLUC_R_SQUARED 0.0893, HEPG2TOX_HILL_SLOPE 15, HEPG2TOX_R_SQUARED 0.814, PBLUC_HILL_SLOPE 11.2, PBLUC_R_SQUARED 0.466, read-out: LUCIFERASE INFECTION ASSAY - IC50”, the IC50 amounted to 3.1 µM.
Take `C[C@H]1O[C@@H](O[C@H]2[C@@H](O)C[C@H](O[C@H]3[C@@H](O)C[C@H](O[C@H]4CC[C@]5(C)C6CC[C@]7(C)[C@@H](C8=CC(=O)OC8)CC[C@]7(O)C6CC[C@@H]5C4)O[C@@H]3C)O[C@@H]2C)C[C@H](O)[C@H]1O` (some centres undefined): the 90% effect concentration (IC90) came to 3.31 µM. For the same molecule, the concentration for half-maximal inhibition (IC50) (HEPG2TOX_HILL_SLOPE 2.7, HEPG2TOX_R_SQUARED 0.866, PBLUC_HILL_SLOPE 1.79, PBLUC_R_SQUARED 0.476, read-out: LUCIFERASE INFECTION ASSAY - IC50) is 0.969 µM.
For the molecule `COC(=O)c1ccc(C(=O)OC)c(N2C(=O)C=CC2=O)c1`, the IC90 was over 11.4 µM. In addition, the IC50 (FFLUC_HILL_SLOPE 12.8, FFLUC_R_SQUARED 0.0109, PBLUC_HILL_SLOPE 0.51, PBLUC_R_SQUARED 0.565, read-out: LUCIFERASE INFECTION ASSAY - IC50) is 0.503 µM.
With `CC(C)Cc1ccc(C2=Nn3c(nnc3-c3cccs3)SC2C)cc1` (centres undefined), the IC90 is over 7.34 µM. Also, the half-inhibitory concentration (IC50) under setting [1] is over 7.34 µM.
`O=C(NCc1ccccc1)C(=Cc1ccc(-c2ccccc2)cc1)C(=O)NCc1ccccc1`: the IC90 stood at 9.48 µM. Moreover, the concentration for half-maximal inhibition (IC50) (PBLUC_HILL_SLOPE 2.95, PBLUC_R_SQUARED 0.782, read-out: LUCIFERASE INFECTION ASSAY - IC50) turned out to be 4.51 µM.
`CCCCn1nc(C(=O)Nc2nc(-c3ccc(CCNC(C)=O)cc3)cs2)c2ccccc2c1=O`: the IC90 was over 10 µM. Further, the IC50 under setting [1] is over 10 µM.
Turning to `CCn1c2ccccc2c2cc(CN(C)C(=O)Cn3nnc4ccccc43)ccc21`, the IC90 came out at 2.08 µM. Moreover, the 50% inhibitory concentration (IC50) (HEPG2TOX_HILL_SLOPE 27.9, HEPG2TOX_R_SQUARED 0.506, PBLUC_HILL_SLOPE 3.75, PBLUC_R_SQUARED 0.455, read-out: LUCIFERASE INFECTION ASSAY - IC50) came to 1.16 µM.
As to `CC(C)N(C(=O)COn1nnc2ccc(S(=O)(=O)N(C)C)cc21)C(C)C`, the IC90 was over 10 µM. Also, the IC50 under setting [1] was over 10 µM.
As for `O=C(CCCSc1nc2ccccc2s1)Nc1ccc(S(=O)(=O)NC2=NCCCCC2)cc1`, the concentration for an effect of 90% (IC90) is over 10 µM. Moreover, the IC50 under setting [1] was over 10 µM.
As for `Clc1ccc(-c2cnc3cnc(-c4ccncc4)cn23)cc1`, the concentration for an effect of 90% (IC90) is 4.84 µM. Moreover, for the setting “PBLUC_HILL_SLOPE 2.25, PBLUC_R_SQUARED 0.741, read-out: LUCIFERASE INFECTION ASSAY - IC50”, the half-inhibitory concentration (IC50) turned out to be 1.82 µM.
In the case of `Cc1onc(-c2c(Cl)cccc2Cl)c1NC(=O)Nc1ccc(Cl)cc1`, the IC90 is 2.89 µM. Under setting [1], the half-maximal inhibitory concentration (IC50) worked out at 0.334 µM.
In the case of `N#Cc1nncn1Cc1csc(-c2cccs2)n1`, the IC90 came out at 9.56 µM. The half-maximal inhibitory concentration (IC50) (PBLUC_HILL_SLOPE 12.1, PBLUC_R_SQUARED 0.315, read-out: LUCIFERASE INFECTION ASSAY - IC50) was 7.97 µM.
For the molecule `CC(C)(C)c1ccc(OCC(=O)Nc2cnn(C(C)(C)C(=O)NCc3ccccc3)c2)cc1`, the IC90 is over 10 µM. In addition, the concentration for half-maximal inhibition (IC50) under setting [1] is over 10 µM.
As for `CC(OC(=O)c1ccc(=O)n(Cc2ccccc2)n1)C(=O)N1CCCc2ccccc21` (centres undefined), the 90% effect concentration (IC90) was over 10 µM. Further, under setting [1], the half-inhibitory concentration (IC50) was over 10 µM.

In general, IC50 refers to the concentration needed to halve the response being measured. What is called IC90 is the concentration needed for an effect of 90%.

The values above are taken from ChEMBL document CHEMBL4483862, “Open-source discovery of chemical leads for next-generation chemoprotective antimalarials” (2018).
